This is an account of results in patent US20230080144A1, “REAL-TIME FLUORESCENCE IMAGING SENSOR FOR MEASURING GLUTATHIONE IN ENDOPLASMIC RETICULUM AND METHOD USING SAME” (CELL2IN, INC., priority 2019, published 2023).

The IC50 is the concentration that inhibits the measured activity by half. A higher IC50 goes with weaker potency.

The data set relates to UC-MSCs. Description: Cytotoxicity test (EZ-cytox). The class given is cell-based. To be noted: for IC50: 24 hours treatment at 5, 10, 20 and 40 μM, absorbance at 450 nm. As for the experimental part: (1) UC-MSCs (4×10^3 cells/well) were cultured in 96-well dishes for 24 hours. (2) The cells were treated with […] of each of ER-FT derivative compounds (Formulas IV to VII) at concentrations of 5, 10, 20 and 40 μM and then incubated at 37° C. for 24 hours. (3) 10 μl of 10× EZ-cytox was added to each well, followed by incubation for 3 hours. (4) The absorbance at 450 nm was measured using a plate reader (reference wavelength: 600 to 650 nm).

As for `Cc1ccc(S(=O)(=O)NCCNC(=O)C2CCN(C(=O)C(C#N)=Cc3cc4cc5c6c(c4oc3=O)CCCN6CCC5)CC2)cc1` [Formula IV], the concentration for half-maximal inhibition (IC50) amounted to 43.4 µM. Moreover, the “toxicity (comparison among Formulas IV to VII)” value (24 hours) was “lowest toxicity”. `N#CC(=Cc1cc2cc3c4c(c2oc1=O)CCCN4CCC3)C(=O)N1CCC(C(=O)NCCCOCCOCCOCCCNC(=O)c2c(F)c(F)c(F)c(F)c2F)CC1` [Formula VII] yielded a half-maximal inhibitory concentration (IC50) of 13.3 µM. Compound `N#CC(=Cc1cc2cc3c4c(c2oc1=O)CCCN4CCC3)C(=O)N1CCC(C(=O)NCCNC(=O)c2c(F)c(F)c(F)c(F)c2F)CC1` [Formula VI] showed an IC50 of 33.4 µM. As to `Cc1ccc(S(=O)(=O)NCCCOCCOCCOCCCNC(=O)C2CCN(C(=O)C(C#N)=Cc3cc4cc5c6c(c4oc3=O)CCCN6CCC5)CC2)cc1` [Formula V], the IC50 was 36.4 µM.
